Data from paper PMC7081834 (Science (New York, N.Y.), 2019).

Molecular target: WWP1 (WW domain–containing ubiquitin E3 ligase 1) (Homo sapiens, UniProt Q9H0M0, F577A/Y656A)
Assay: microscale thermophoresis
Type: binding

WWP1 (WW domain–containing ubiquitin E3 ligase 1), sequence (Q9H0M0 546-922 F577A/Y656A limits assumed): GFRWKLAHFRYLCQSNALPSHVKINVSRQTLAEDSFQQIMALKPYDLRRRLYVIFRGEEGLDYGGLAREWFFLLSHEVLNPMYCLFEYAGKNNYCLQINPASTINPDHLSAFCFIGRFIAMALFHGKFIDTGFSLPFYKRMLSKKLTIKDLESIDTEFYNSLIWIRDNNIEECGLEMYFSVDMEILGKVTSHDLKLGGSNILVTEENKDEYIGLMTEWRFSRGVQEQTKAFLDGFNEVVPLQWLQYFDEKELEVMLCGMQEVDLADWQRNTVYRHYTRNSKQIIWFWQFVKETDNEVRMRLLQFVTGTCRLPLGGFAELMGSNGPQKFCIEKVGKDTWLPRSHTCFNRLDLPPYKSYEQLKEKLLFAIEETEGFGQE

Kd: ~7.72 µM
SMILES: OCc1c[nH]c2ccccc12 [I3C, indole-3-carbinol]
